According to EP2351737A1, “3-Amino-1-arylpropyl indoles and aza-substituted indoles” (F. Hoffmann-La Roche AG, priority 2005, dated 2007):

Columns and labels:
[1] = target: Human Norepinephrine Transporter (hNET) (Homo sapiens, UniProt P23975); assay: Human Norepinephrine Transporter (hNET) Scintillation Proximity Assay (SPA), competition with [3H]-Nisoxetine; conditions: membranes of HEK-293 cells expressing recombinant hNET, Ki by Cheng-Prusoff; for Ki: pKi NET
[2] = target: T1, Human Serotonin Transporter (hSERT) (Homo sapiens, UniProt P31645); assay: Human Serotonin Transporter (hSERT) Scintillation Proximity Assay (SPA), competition with [3H]-Citalopram; type: binding; conditions: membranes of HEK-293 cells expressing recombinant hSERT, Ki by Cheng-Prusoff; for Ki: read-out: pKi SERT (converted)
T1 construct: expressed in transfected cells; membranes prepared from them
T1 sequence (P31645 whole entry): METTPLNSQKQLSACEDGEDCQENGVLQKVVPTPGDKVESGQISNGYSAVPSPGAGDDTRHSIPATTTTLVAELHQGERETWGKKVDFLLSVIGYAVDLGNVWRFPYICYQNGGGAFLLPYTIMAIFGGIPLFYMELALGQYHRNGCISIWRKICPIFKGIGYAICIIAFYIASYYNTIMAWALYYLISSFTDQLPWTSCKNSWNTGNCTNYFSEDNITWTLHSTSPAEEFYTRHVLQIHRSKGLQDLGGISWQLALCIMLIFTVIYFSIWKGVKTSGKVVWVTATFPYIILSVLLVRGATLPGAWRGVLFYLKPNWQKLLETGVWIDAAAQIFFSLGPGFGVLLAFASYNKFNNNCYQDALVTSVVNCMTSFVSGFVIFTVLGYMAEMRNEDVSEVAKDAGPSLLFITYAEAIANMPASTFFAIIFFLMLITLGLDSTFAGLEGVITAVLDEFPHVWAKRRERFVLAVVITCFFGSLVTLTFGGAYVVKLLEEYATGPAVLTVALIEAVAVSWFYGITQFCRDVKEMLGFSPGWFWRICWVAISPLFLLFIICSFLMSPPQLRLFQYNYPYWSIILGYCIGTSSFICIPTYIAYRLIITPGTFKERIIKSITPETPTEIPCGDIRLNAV

Sequence of Human Norepinephrine Transporter (hNET) (P23975 whole entry): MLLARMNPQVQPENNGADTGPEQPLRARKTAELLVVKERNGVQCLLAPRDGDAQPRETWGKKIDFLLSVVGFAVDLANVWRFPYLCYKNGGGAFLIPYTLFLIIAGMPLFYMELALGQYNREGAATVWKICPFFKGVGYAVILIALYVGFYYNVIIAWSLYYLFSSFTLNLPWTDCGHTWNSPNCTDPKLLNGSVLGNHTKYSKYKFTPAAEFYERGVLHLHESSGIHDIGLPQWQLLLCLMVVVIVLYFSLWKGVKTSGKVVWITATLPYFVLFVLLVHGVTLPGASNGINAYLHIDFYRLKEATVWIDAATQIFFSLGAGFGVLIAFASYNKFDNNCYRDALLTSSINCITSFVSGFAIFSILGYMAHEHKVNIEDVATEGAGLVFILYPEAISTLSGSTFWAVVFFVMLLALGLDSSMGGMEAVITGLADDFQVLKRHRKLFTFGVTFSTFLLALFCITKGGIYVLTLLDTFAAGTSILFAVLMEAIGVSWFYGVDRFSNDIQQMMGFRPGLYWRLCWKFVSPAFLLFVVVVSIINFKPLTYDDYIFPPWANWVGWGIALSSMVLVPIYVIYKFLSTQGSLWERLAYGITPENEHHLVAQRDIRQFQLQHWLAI

| Compound | Ki [1] | Ki [2] | pKi NET [1] | pKi SERT [2] |
| --- | --- | --- | --- | --- |
| [3,3-Bis-(1H-indol-5-yl)-propyl]-methyl-amine [Compound 111] |  |  | 9.12 | 7.92 |
| [3,3-Bis-(7-fluoro-1H-indol-5-yl)-propyl]-methyl-amine [Compound 118] |  |  | 8.87 | 7.43 |
| [3-(1-Methanesulfonyl-1H-indol-5-yl)-3-phenyl-propyl]-methyl-amine hydrochloride [Compound 14] |  |  | 6.57 | 7.55 |
| [3-(1H-Indol-5-yl)-3-quinolin-6-yl-propyl]-methyl-amine [Compound 112] |  |  | 7.5 | 8.67 |
| [3-(1H-Indol-6-yl)-3-(2-methoxy-phenyl)-propyl]-methyl-amine [Compound 34] |  |  | 6.59 | 7.63 |
| [3-(1H-Indol-6-yl)-3-phenyl-propyl]-methyl-amine [Compound 41] |  |  | 7.63 | 8.01 |
| [3-(3,4-Dichloro-phenyl)-3-(1H-indol-5-yl)-propyl]-methyl-amine [Compound 107] |  |  | 7.83 | 8.17 |
| [3-(3,4-Dichloro-phenyl)-3-(7-fluoro-1H-indol-5-yl)-propyl]-methyl-amine [Compound 109] |  |  | 7.56 | 7.9 |
| [3-(3-Chloro-1H-indazol-5-yl)-3-phenyl-propyl]-methyl-amine [Compound 57] |  |  | 7.06 | 8.14 |
| [3-(4-Methoxy-1H-indol-5-yl)-3-phenyl-propyl]-methyl-amine [Compound 88] |  |  | 7.03 | 7.28 |
| [3-(5-Methoxy-1H-indol-6-yl)-3-phenyl-propyl]-methyl-amine [Compound 86] |  |  | 7.63 | 8.01 |
| [3-(7-Fluoro-1H-indol-5-yl)-3-(2-fluoro-phenyl)-propyl]-methyl-amine [Compound 95] |  |  | 8.32 | 7.22 |
| [3-(7-Fluoro-1H-indol-5-yl)-3-(2-methoxy-phenyl)-propyl]-methyl-amine [Compound 101] |  |  | 7.58 | 7.24 |
| [3-(7-Fluoro-1H-indol-5-yl)-3-(3-fluoro-phenyl)-propyl]-methyl-amine [Compound 93] |  |  | 8.41 | 7.76 |
| [3-(7-Fluoro-1H-indol-5-yl)-3-(3-methoxy-phenyl)-propyl]-methyl-amine [Compound 100] |  |  | 7.95 | 7.79 |
| [3-(7-Fluoro-1H-indol-5-yl)-3-(4-fluoro-phenyl)-propyl]-methyl-amine [Compound 94] |  |  | 8.0 | 7.75 |
| [3-(7-Fluoro-1H-indol-5-yl)-3-(4-methoxy-phenyl)-propyl]-methyl-amine [Compound 98] |  |  | 8.3 | 7.88 |
| [3-(7-Fluoro-1H-indol-5-yl)-3-naphthalen-2-yl-propyl]-methyl-amine [Compound 106] |  |  | 7.68 | 8.28 |
| [3-(7-Methoxy-1H-indol-5-yl)-3-phenyl-propyl]-methyl-amine [Compound 22] |  |  | 8.39 | 7.66 |

Now from value to compound, other results behind:

| Ki [1] | Ki [2] | Compound | pKi NET [1] | pKi SERT [2] |
| --- | --- | --- | --- | --- |
| 5.89 nM | 8.91 nM | CNCCC(c1ccc2[nH]ccc2c1)c1ccc2cc[nH]c2c1 (centres unmarked) [Compound 117, [3-(1H-Indol-6-yl)-3-(1H-indol-5-yl)-propyl]-methyl-amine] |  |  |
| 11.5 nM | 72.4 nM | NCCC(c1ccc2[nH]ccc2c1)c1ccc2[nH]ccc2c1 [Compound 119, 3,3-Bis-(1H-indol-5-yl)-propylamine] |  |  |
| 141 nM | 3.24 nM | NCCC(c1ccc2ncccc2c1)c1ccc2[nH]ccc2c1 (centres unmarked) [Compound 120, 3-(1H-Indol-5-yl)-3-quinolin-6-yl-propylamine] |  |  |
| 56.2 nM | 46.8 nM | CNCCC(c1ccc2[nH]ccc2c1)c1cccc2cc[nH]c12 (centres unmarked) [Compound 121, [3-(1H-Indol-7-yl)-3-(1H-indol-5-yl)-propyl]-methyl-amine] |  |  |
| 112 nM | 47.9 nM | CNCCC(c1ccc2[nH]ccc2c1)c1ccc2nccnc2c1 (centres unmarked) [Compound 123, [3-(1H-Indol-5-yl)-3-quinoxalin-6-yl-propyl]-methyl-amine] |  |  |
| 398 nM | 22.9 nM | Cn1cc(C#N)c2cc(C(CCN)c3ccccc3)cc(F)c21 (centres unmarked) [Compound 126, 5-(3-Amino-1-phenyl-propyl)-7-fluoro-1-methyl-1H-indole-3-carbonitrile] |  |  |
| 51.3 nM | 8.32 nM | CNCCC(c1ccccc1)c1cc(F)c2c(c1)c(C#N)cn2C (centres unmarked) [Compound 127, 7-Fluoro-1-methyl-5-(3-methylamino-1-phenyl-propyl)-1H-indole-3-carbonitrile] |  |  |
| 57.5 nM | 1.02 nM | CNCCC(c1ccccc1)c1ccc2[nH]c(C#N)cc2c1 (centres unmarked) [Compound 128, 5-(3-Methylamino-1-phenyl-propyl)-1H-indole-2-carbonitrile] |  |  |
| 9.33 nM | 11.2 nM | CNCCC(c1ccc2[nH]ccc2c1)c1nc2ccccc2s1 (centres unmarked) [Compound 140, [3-Benzothiazol-2-yl-3-(1H-indol-5-yl)-propyl]-methyl-amine] |  |  |
| 10.7 nM | 22.4 nM | CNCCC(c1ccccc1)c1ccc2occc2c1 (centres unmarked) [Compound 141, (3-Benzofuran-5-yl-3-phenyl-propyl)-methyl-amine] |  |  |
| 10.5 nM | 10.7 nM | CNCCC(c1ccccc1)c1ccc2occc2c1 (centres unmarked) [Compound 142, (3-Benzofuran-5-yl-3-phenyl-propyl)-methyl-amine] |  |  |
| 1.55 nM | 22.4 nM | CNCCC(c1ccccc1)c1ccc2sccc2c1 (centres unmarked) [Compound 143, (3-Benzo[b]thiophen-5-yl-3-phenyl-propyl)-methyl-amine] |  |  |
